The text below walks through data of patent US8545834B2, “G-substrate for the treatment and prevention of parkinson's disease” (The McLean Hospital Corporation, priority 2007, dated 2013).

Experiment [1] has as its system Akt, GSK3β, ERK1/2, p38. Description: Western blot of phosphorylation levels of PP2A targets in BE(2)-M17 cells. It counts as cell-based, human. The source says:
As described herein, G-substrate overexpression altered the phosphorylation levels of PP2A targets known to play critical roles in cell survival. Akt, GSK3β, and ERK1/2 are known to promote cell survival when phosphorylated (Song et al., J. Cell. Mol. Med. 9: 59-71, 2005; Chen et al., 2004; Ray et al., J. Biol. Chem. 280: 31091-31100, 2005; Tamura et al., FEBS Lett. 569: 249-255, 2004) and phosphorylated p38 is known to mediate cell death in dopaminergic neurons exposed to various toxins including 6-OHDA (Choi et al., J. Biol. Chem. 279: 20451-20460, 2004; Ruano et al., Neurosci. 140: 1157-1168, 2006; Ou et al., Proc. Natl. Acad. Sci. USA 103: 10923-10928, 2006). To test whether changes in phosphorylation levels of these proteins are G-substrate-dependent, both control and G-substrate-expressing cells were exposed to 50 μM 6-OHDA for various durations (t=0, 2, 5 and 10 hr). BE(2)-M17 cells were prepared and cultured as described above. The level of the total and phosphorylated forms of these PP2A substrates was detected by Western blot analysis (FIGS. 7A, 7C, 7E, and 7H).
Cells and tissue samples were collected from and suspended in lysis buffer containing: 50 mM Tris-HCl, 0.15 M NaCl, 0.32 M sucrose, 1.0 mM EDTA, and 1% NP-40. In addition, phosphatase inhibitors I and II (1:100) and protease inhibitors (1:100) were added fresh prior to cell lysis (Sigma-Aldrich, P2850, P5276, and P8340 respectively). Following cell lysis, the homogenate was centrifuged, a portion of the supernatant was reserved for protein determination (BCA Assay, Pierce, Rockford, Ill.) and the remaining was stored at −20° C. 20 μg (in vitro cell preps) and 50 μg (tissue dissections) of solubilized protein were mixed 1:1 with sample buffer and boiled for 5 min. The samples and molecular weight standards were separated using the Criterion precast 10% SDS-polyacrylamide gel system (Bio-Rad, Hercules, Calif.). After electrophoresis, the proteins were electrically transferred to PVDF membranes at 100 V for 30 min. After transfer, blots were incubated in Tris-buffered saline with 0.1% Tween 20 (TBS-T) containing 5% BSA. Subsequently, blots were incubated with the following antibodies at 4° C. overnight (1:1000 unless otherwise stated): phospho-Akt (ser473), phospho-GSK3β (ser9), phospho-erk1/2, and phospho-p38 (Cell Signaling Technologies, Danvers, Mass.). HRP-conjugated secondary antibodies were then applied and immunoreactive bands were visualized with chemiluminescence (Amersham Biosciences, Arlington Heights, Ill.) and exposed onto film. Immunoblots were then stripped and re-probed for the expression of the total protein (Cell Signaling) and beta-actin (1:10 000) (Abcam) to serve as a loading control. Optical density analysis (NIH image) was used to determine the relative abundance of protein in each sample. The optical densities of the phospho epitopes were standardized to their respective total proteins and this value was used in the statistical analyses.
(In western blotting, separated proteins are transferred to a membrane and probed.)

Experiment [2] has as its system Akt, GSK3β. Description: In vivo Akt and GSK3β phosphorylation, Western blot of substantia nigra and striata. Conditions: rats. Details: species or system rat. On the procedure: The in vivo effect of G-substrate overexpression on Akt and GSK3β phosphorylation was investigated. Substantia nigra (FIG. 12R) and striata (FIG. 12T) of the control (empty vector) lentivirus and G-substrate injected were dissected and a Western blot analysis was performed.
Animals were deeply anesthetized with an i.p. injection sodium pentobarbital and were sacrificed by exsanguination with the aid of ice-cold saline perfusion. For immunohistochemistry, the brains were then fixed with a 4% paraformaldehyde solution. The brains were then removed from the skull and placed in fresh 4% paraformaldehyde solution for 1 h, and equilibrated through 20% and 30% sucrose solutions and refrigerated until cutting for immunohistochemistry. For immunoblotting, brains injected with lenti-empty vector+lenti-eGFP (n=10) or lenti-G substrate+lenti-eGFP (n=10) were rapidly removed after saline perfusion and sliced coronally using a tissue chopper set to 1 mm (Campden Instruments Ltd., Lafayette, Ind.). On an inverted glass Petri dish over ice, regions of interest (striatum and substantia nigra region) were dissected from the individual 1 mm tissue slices, frozen on dry ice, and stored at −80° C.
Cells and tissue samples were collected from and suspended in lysis buffer containing: 50 mM Tris-HCl, 0.15 M NaCl, 0.32 M sucrose, 1.0 mM EDTA, and 1% NP-40. In addition, phosphatase inhibitors I and II (1:100) and protease inhibitors (1:100) were added fresh prior to cell lysis (Sigma-Aldrich, P2850, P5276, and P8340 respectively). Following cell lysis, the homogenate was centrifuged, a portion of the supernatant was reserved for protein determination (BCA Assay, Pierce, Rockford, Ill.) and the remaining was stored at −20° C. 20 μg (in vitro cell preps) and 50 μg (tissue dissections) of solubilized protein were mixed 1:1 with sample buffer and boiled for 5 min. The samples and molecular weight standards were separated using the Criterion precast 10% SDS-polyacrylamide gel system (Bio-Rad, Hercules, Calif.). […]

The mark [3] stands for this setting: G-substrate versus control lentivirus.

On to “G-substrate: human wild type G-substrate (SEQ ID NO.: 1) overexpressed from a lentiviral vector”, for which the “level of phosphorylated p38” value in experiment [1] (G-substrate overexpression, 50 μM 6-OHDA) was “did not alter”. In addition, the “level of pAkt” value in experiment [1] (G-substrate overexpression, basal and 2, 5 and 10 hours after 50 μM 6-OHDA) is given as “significant increase”. Besides, in experiment [1] (G-substrate-overexpressing cells, basal), the “basal level of pGSK3β” value is listed as “increased”. Also, the “level of pErk2” value in experiment [1] (only at 10 hours following 50 μM 6-OHDA, no basal level increase) was “increased”. In addition, the “level of pErk1” value in experiment [1] (similar trend as pErk2, 50 μM 6-OHDA) is on record as “did not reach the statistical significance”. Besides, the pAkt levels in experiment [2] (substantia nigra and striata, compared to control lentivirus) is recorded as 1.38 fold. In experiment [2] (setting [3]), the “level of pGSK3β in the SN” value was “unchanged” and the “level of pGSK3β in the striatum” value is given as “modestly but significantly higher”.
